Non-standard residues stand in square brackets, D forms with d. Residues, ends and D or L forms follow the SMILES beside them. Sta = CC(C)C[C@H](N)[C@@H](O)CC(=O)O; N(iPr)Gly = CC(C)NCC(=O)O
target: Cathepsin D (Homo sapiens, UniProt P07339); test: Assay 3: cathepsin D inhibition activity (non-cellular assay, chromogenic substrate); format: biochemical; design: Frozen human placental tissue was thawed and homogenized; from tissue; host or cells: human placenta; settings: 4 µM test compound; inhibition of initial rate relative to control; cathepsin D from human placental tissue
Method: A third non-cellular assay for determining in vitro aspartyl protease inhibitory activity is generally described in Jupp, R.A. et al., (1990) Biochem. J., 265:871-878 and Rao et al., J. Med. Chem. (1993), in press. The assay is carried out by incubating a test compound with a suitable aspartyl protease, such as cathepsin D, in the presence of a chromogenic substrate. The inhibition constant, Ki, value may then be determined by quantifying the competitive inhibition of the hydrolysis of the chromogenic substrate. A variety of chromogenic substrates that are useful for assaying aspartyl protease activity are discussed in Dunn, et al., (1986) Biochem. J., 237:899-906. A preferred chromogenic substrate for a cathepsin D assay is disclosed in Scarborough, P.E. et al., Protein Science, (1993), 2:264-276.
Concentrations of substrate solutions and cleavage products may be verified using amino acid analysis. The enzyme preparations may be titrated with a tightly binding inhibitor to quantitate the active concentration of the enzyme. Enzyme concentrations are typically in the range of from 1-6 nM. Stock solutions of the test compound are prepared at concentrations ranging from 1.0 to 5.0 mg/mL, and then 50-100 µL portions of these stock solutions may be further diluted to a concentration in the range of 5 to 300 µM for rate determinations.
[…] Then, the test compounds are assayed over a concentration range of, for example, 5 to 300 µM for rate determinations.
A decrease in absorbance in the range of 284-324 nm may be monitored using a spectrophotometer. Absorbance readings are typically taken at various timepoints. The initial velocities are then plotted versus the initial substrate concentration. […] Estimates of Ki may then be determined using the Dixon construction. Dixon, M., (1953) Biochem J., 55:170-171.
If the ratio of the total active enzyme concentration to the estimated Ki value ([E]t/Ki) is less than 0.2, then the precise Ki value may be computed by using a non-linear curve fitting program based on the equation: v= Vmax [S]/[S] + Km (1 + [I]/Ki ) [formula] where v is the initial rate, [S] is the initial substrate concentration, [I] is the inhibitor concentration and Km and Ki are defined above. […] P.J.F., (1972) Biochem J., 127:321-333. This Assay is exemplfied in Assay 3.
The homogenate was centrifuged at 10,000 rpm for 30 minutes in a Sorvall GSA rotor. The supernatant was adjusted to pH 3.7 using 5.7N HCl and then sodium acetate was added to a concentration of 0.1M. The resultant mixture was incubated for 30 minutes at 0°C, resulting in the formation of a precipitate. This precipitate was removed by centrifugation (30 minutes, 10,000 rpm). The acidic supernatent was applied to a chromatography column (pepstatinyl agarose equilibrated with 0.1M sodium acetate, pH 3.5, 0.1% Brij 35, and 1M NaCl), washed until the OD₂₈₀ of the effluent returned to baseline, and then eluted with 50mM Tris-HCl, pH 8.6, 0.1% Brij 35, and 1M NaCl. The eluent was dialyzed against 10mM sodium phosphate, pH 7.0, 0.1% Brij 35, and 0.1M NaCl, and then applied to a 1 mL DEAE-Sephacel column equilibrated with the same buffer. Cathepsin D was recovered in the breakthrough fraction.
The enzyme mixture (125 µL buffer (0.1M sodium formate at pH 3.7), 1 µL of a 1mM solution of test compound, 4 µL of DMSO, enzyme and water to provide a total volume of 230 µL) was vortexed and prewarmed for four minutes before the addition of the chromogenic substrate. After warming, the enzyme mixture was added to 20 µL of a […] dilution of substrate solution. A control reaction mixture was similarly prepared without the addition of the test compound. The percent of inhibition of the initial rate of reaction in the presence of a particular concentration of test compound (i.e. 4 µM) may be determined for the test compound by monitoring the reaction mixture in parallel to the control reaction. […]

Cathepsin D, sequence (P07339 169-412 limits assumed): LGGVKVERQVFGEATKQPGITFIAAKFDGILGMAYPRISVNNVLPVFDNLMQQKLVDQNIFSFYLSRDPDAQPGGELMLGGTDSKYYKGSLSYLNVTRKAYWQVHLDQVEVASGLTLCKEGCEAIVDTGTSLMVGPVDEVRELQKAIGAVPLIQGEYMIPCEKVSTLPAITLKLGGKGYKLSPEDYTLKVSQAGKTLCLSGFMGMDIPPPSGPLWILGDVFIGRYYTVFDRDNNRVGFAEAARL
Cathepsin D, sequence (P07339 65-162 limits assumed): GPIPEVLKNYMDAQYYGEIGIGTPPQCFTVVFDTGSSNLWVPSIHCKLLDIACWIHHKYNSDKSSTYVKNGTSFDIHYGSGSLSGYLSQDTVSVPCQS

SMILES	% inhibition at 4µ M [%]
Cc1ccc(C(=O)C2NCCc3ccccc32)cc1C(=O)N[C@@H](Cc1ccccc1)[C@H](O)CN1C[C@H]2CCCC[C@H]2C[C@H]1C(=O)NC(C)(C)C (relative stereo) [Example 30, [3S-(3R*,4aR*,8aR*,2'S*,3'R*)]-2-[2'-Hydroxy-3'-phenylmethyl-4'-aza-5'-oxo-5'-(3''-[1''',2''',3''',4'''-tetrahydroisoquinolin-1'''-ylcarbonyl]-6''-methyl)phenyl]pentyl-decahydroisoquinoline-3-N-t-butylcarboxamide]	28

same assay, conditions: cathepsin D from human placental tissue, chromogenic substrate, pH 3.7, 37°C

SMILES	Ki [nM]
Cc1cccc2ccc(C(=O)N[C@@H](CC(N)=O)C(=O)N[C@@H](Cc3ccccc3)[C@H](O)Cc3ccccc3C(=O)NC(C)(C)C)nc12 [Example 9, [1S-(1R*,4R*,5S*)]-N-(1-(2-Amino-2-oxoethyl)-2-oxo-3-aza-4-phenylmethyl-5-hydroxy-6-(2-(1-t-butylamino-1-oxomethyl)phenyl)hexyl)-8-methylquinolin-2-yl carboxamide]	820
CC(C)C(NC(=O)C(Cc1cccc2ccccc12)NC(=O)OC(C)(C)C)C(=O)NC(Cc1ccccc1)C(O)Cc1ccccc1C(=O)NC(C)(C)C (stereo not drawn) [Example 24, [2R-(2R*,3S*,6S*,9R*)]-N-t-Butyl-2-[2-hydroxy-3-phenylmethyl-4,7-diaza-5,8-dioxo-6-(1-methylethyl)-9-N(t-butoxycarbonyl)amino-10-naphth-1-yl]decyl benzamide]	42
CC(C)C(NC(=O)C(Cc1cccc2ccccc12)NC(=O)OC(C)(C)C)C(=O)NC(Cc1ccccc1)C(O)Cc1ccccc1C(=O)NC(C)(C)C (stereo not drawn) [Example 23, [2R-(2R*,3S*,6S*,9S*)]-N-t-Butyl-2-[2-hydroxy-3-phenylmethyl-4,7-diaza-5,8-dioxo-6-(1-methylethyl)-9-N(t-butoxycarbonyl)amino-10-naphth-1-yl]decyl benzamide]	73

target: T1, Human brain cathepsin D (Homo sapiens, UniProt P07339); test: Assay 1: cathepsin D inhibition activity (non-cellular assay, porcine renin tetradecapeptide substrate, RP-HPLC); format: biochemical; settings: purified human brain cathepsin D, pH 4.5, 44 µM porcine renin tetradecapeptide, 37°C
T1 construct: Human brain cathepsin D was purified from frozen post-mortem cortex; from tissue; host or cells: human post-mortem brain cortex
Method: An example of a non-cellular assay that may be used to determine in vitro aspartyl protease inhibitory activity reacts partially purified human brain cathepsin D with a substrate, e.g., porcine renin tetradecapeptide. The resultant reaction mixture is divided into portions and each portion is incubated for a different period of time. After the reaction is stopped, the turnover of substrate in each portion is determined using reverse-phase HPLC. Protease inhibition activity may be calculated based on the rates of substrate turnover. This assay is exemplified in Assay 1, below. Human brain cathepsin D was purified from frozen post-mortem cortex substantially in accordance with the method of Nixon and Morotta, (1984) J. Neurochem. 43:507-516. The cortex material was prepared and applied to a DEAE-Sepharose® column. The flow through fraction was dialyzed against 50mM Tris-HCl, pH 7.5, and applied to concanavalin A Sepharose® and eluted with 50mM Tris, pH 7.5, 0.5M methyl α-D-mannopyranoside. The eluted cathepsin D activity was dialyzed against 25mM Tris, pH 7.5, and stored at -40°C (Con A pool) until use. For each assay, 50 μL of the Con A pool was diluted to 270 μL in 200mM sodium citrate, pH 4.5, 150mM sodium chloride (NaCl), and incubated for 10 minutes at 4°C with 15 μL of compound stock diluted in dimethylsulfoxide (DMSO). The substrate, porcine renin tetradecapeptide ([…] [SEQ ID NO:3], Bachem Bioscience, Inc., Philadelphia, PA), was added to each reaction mixture to yield a final concentration of 44 μM in a total volume of 300 μL. The samples were incubated at 37°C for 0, 10, 20, or 30 minutes, and then boiled for 5 minutes to stop the reaction. The samples were centrifuged in a microcentrifuge for 10 minutes at 14,000 rpm at 4°C. After centrifugation, 200 μL of each reaction was injected onto […] column (Vydac, Hesperia, CA) with a Perkin Elmer ISS 100 autosampler and eluted with a gradient eluent of 0-50% CH3CN in 0.1% CF3CO2H at 2 mL/min. Peptide product peaks were monitored at 220nm with a Perkin Elmer LC 95 detector and integrated with Rainin Dynamax software in order to quantitate activity.

T1 sequence (P07339 65-412): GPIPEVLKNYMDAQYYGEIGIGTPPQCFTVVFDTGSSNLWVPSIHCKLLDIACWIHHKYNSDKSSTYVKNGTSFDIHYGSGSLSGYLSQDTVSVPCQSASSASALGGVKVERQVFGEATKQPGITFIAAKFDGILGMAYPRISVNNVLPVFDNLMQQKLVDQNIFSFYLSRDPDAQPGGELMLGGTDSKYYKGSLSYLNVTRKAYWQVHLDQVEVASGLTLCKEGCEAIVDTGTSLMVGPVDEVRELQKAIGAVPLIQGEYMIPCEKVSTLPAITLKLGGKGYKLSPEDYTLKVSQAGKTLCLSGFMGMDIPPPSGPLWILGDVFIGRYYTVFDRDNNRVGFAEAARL

SMILES	IC50 [nM]
CC(C)C[C@H](NC(=O)[C@@H](NC(=O)[C@@H](NC(=O)CN)C(C)C)C(C)C)[C@@H](O)CC(=O)N[C@@H](C)C(=O)N[C@H](C(=O)O)[C@@H](C)O [Example 43, Gly-Val-Val-Sta-Ala-Thr-OH] (H-GVV[Sta]AT-OH)	53
CC(C)C[C@H](NC(=O)[C@@H](NC(=O)[C@@H](NC(=O)CNC(C)C)C(C)C)C(C)C)[C@@H](O)CC(=O)N[C@@H](C)C(=O)N[C@H](C(=O)O)[C@@H](C)O [Example 42, (CH3)2CH-Gly-Val-Val-Sta-Ala-Thr-OH] (H-[N(iPr)Gly]VV[Sta]AT-OH)	8
CC[C@H](C)[C@H](NC(=O)C[C@H](O)[C@H](CC(C)C)NC(=O)[C@@H](NC(=O)CNC(C)C)C(C)C)C(=O)N[C@@H](C)C(=O)N[C@H](C(=O)O)[C@@H](C)O [Example 48, (CH3)2CH-Gly-Val-Sta-Ile-Ala-Thr-OH] (H-[N(iPr)Gly]V[Sta]IAT-OH)	> 250
CC(C)C[C@H](NC(=O)[C@@H](NC(=O)CN)C(C)C)[C@@H](O)CC(=O)N[C@@H](C)C(=O)N[C@H](C(=O)O)[C@@H](C)O [Example 45, Gly-Val-Sta-Ala-Thr-OH] (H-GV[Sta]AT-OH)	> 250
CC(=O)NCC(=O)N[C@H](C(=O)N[C@H](C(=O)N[C@@H](CC(C)C)[C@@H](O)CC(=O)N[C@@H](C)C(=O)N[C@H](C(=O)O)[C@@H](C)O)C(C)C)C(C)C [Example 41, CH3C(O)-Gly-Val-Val-Sta-Ala-Thr-OH] (Ac-GVV[Sta]AT-OH)	4
